Laboratory results from patent US11473145B2, “Methods for determining whether a patient suffering from rhabdomyolysis achieves a response with a TLR9 antagonist” (INSERM (INSTITUT NATIONAL DE LA SANTÉ ET DE LA RECHERCHE …, priority 2017, dated 2022).
“Also recorded” adds a separate entry of the source.

What was measured:
Format in all cases: in vivo, human
[1] = test system: patients with lipin-1 disease; assay: Life quality questionnary PESDQL children
Description: (§1) We treated in 2016 two patients (P1, P2) with lipin-1 disease by hydroxychloroquine sulphate (plaquenil®) and two patients (P3, P4) with dantrolene sodium after obtaining the authorization by the CPP of Paris Descarte University (Comité pour la protection des personnes). Moreover the patient (P5) has been treated for one month by plaquenil® because of their cardiac dysfunction, their fatigability and their sleep disorders. Indeed we think that plaquenil® works well on the two patients treated (P1, P2) and P5's state was considered sufficiently serious to propose it. Plaquenil® was given at a dose of 6 mg/Kg/day into 1 intake (dose usually given in Lupus disease) to P1, P2 and P5.
(§2) Patient 1 corrected their clinical muscle phenotype (Table 1). Physical maximum capacities were measured using six-minute walk (TC6′), Short-Form life quality by using Questionary (SF-36) to assess QOL for parent and for patient, and a self-assessment pain scale (EVA). […] Since then they have resumed treatment.

[2] = test system: patients with lipin-1 disease; assay: Self-assessment pain scale (EVA)
Description: as §1, §2

[3] = test system: patients with lipin-1 disease; assay: Six-minute walk test (physical maximum capacities) in patients treated by Plaquenil
Description: as §1, §2

[4] = test system: patients with lipin-1 disease; assay: Life quality questionnary PESDQL parent
Description: as §1, §2

IL-6 = IL-6 secretion in serum measured by ELISA (serum inflammatory profile); settings: for IL-6 concentration in serum: lipin-1 deficient patients
Method: FIG. 1. Inflammatory profile in serum of lipin-1 deficient patients in vivo. Above: IL-6 secretion in serum was measured by ELISA.
as §1
(§3) Both patients 1 and 2 treated in vivo with Plaquenil® normalized their serum inflammatory profile in one month after the start of treatment (FIG. 1). IL-6 secretion increased in plasma when the two patients stopped their treatment (FIG. 1). The accumulation of mtDNA in plasma of the two patients before treatment decreases under treatment by Plaquenil® (FIG. 2). After Plaquenil® was stopped, the accumulation of mtDNA reappeared, then normalized when treatment was resumed. We observe a correlation between variations of IL-6 and mtDNA accumulation levels, and with the compliance of the treatment.

[5] = test system: patients with lipin-1 disease; assay: Clinical follow-up: rhabdomyolysis episodes, muscle phenotype and muscle pain
Description: as §1, §3, §2

Creatine kinase (CK) = assay: Serum Creatine kinase (CK) level
Description: as §1, §3, §2

[6] = test system: mitochondrial DNA (mtDNA); assay: Quantity of mitochondrial DNA (qPCR) in plasma; settings: two patients (P1, P2)
Description: FIG. 2. Quantity of mitochondrial DNA (qPCR) in plasma of two patients.
as §1, §3

[7] = the two patients, treatment resumed, winter 2016-2017

CCN(CCO)CCCC(C)Nc1ccnc2cc(Cl)ccc12 (stereo not shown) [Plaquenil®, hydroxychloroquine sulphate]
Questionnary (0: very well - 92: very bad) PESDQL children ([1]; patient P1, M 2 of treatment, M 0 before treatment 26): P1: 12 | Questionnary (0: very well - 92: very bad) PESDQL children ([1]; patient P1, M 5 of treatment, M 0 26): P1: 11 | Questionnary (0: very well - 92: very bad) PESDQL children ([1]; patient P1, M 9, after M 6-M 8 interruption of treatment, M 0 26): P1: 38 | Questionnary (0: very well - 92: very bad) PESDQL children ([1]; patient P1, M 16, treatment resumed, M 0 26): P1: 8 | Questionnary (0: very well - 92: very bad) PESDQL children ([1]; patient P2, M 2 of treatment, M 0 before treatment 45): P2: 32 | Questionnary (0: very well - 92: very bad) PESDQL children ([1]; patient P2, M 5 of treatment, M 0 45): P2: 35 | Questionnary (0: very well - 92: very bad) PESDQL children ([1]; patient P2, M 9, after M 6-M 8 interruption of treatment, M 0 45): P2: 47 | Questionnary (0: very well - 92: very bad) PESDQL children ([1]; patient P2, M 16, treatment resumed, M 0 45): P2: 30 | Pain Evaluation (EVA) (4: not painful - 40: very painful) ([2]; patient P1, M 2 of treatment, M 0 before treatment 24): P1: 16 | Pain Evaluation (EVA) (4: not painful - 40: very painful) ([2]; patient P1, M 5 of treatment, M 0 24): P1: 0 | Pain Evaluation (EVA) (4: not painful - 40: very painful) ([2]; patient P1, M 9, after M 6-M 8 interruption of treatment, M 0 24): P1: 4 | Pain Evaluation (EVA) (4: not painful - 40: very painful) ([2]; patient P1, M 16, treatment resumed, M 0 24): P1: 0 | Pain Evaluation (EVA) (4: not painful - 40: very painful) ([2]; patient P2, M 2 of treatment, M 0 before treatment 18): P2: 12 | Pain Evaluation (EVA) (4: not painful - 40: very painful) ([2]; patient P2, M 5 of treatment, M 0 18): P2: 0 | Pain Evaluation (EVA) (4: not painful - 40: very painful) ([2]; patient P2, M 9, after M 6-M 8 interruption of treatment, M 0 18): P2: 16 | Pain Evaluation (EVA) (4: not painful - 40: very painful) ([2]; patient P2, M 16, treatment resumed, M 0 18): P2: 0 | Six-minute walk test (normal 560-740) ([3]; patient P1, M 2 of treatment, 6 mg/Kg/day, M 0 before treatment 450 m): P1: 540 m | Six-minute walk test (normal 560-740) ([3]; patient P1, M 5 of treatment, M 0 450 m): P1: 520 m | Six-minute walk test (normal 560-740) ([3]; patient P1, M 9, after M 6-M 8 interruption of treatment, M 0 450 m): P1: 539 m | Six-minute walk test (normal 560-740) ([3]; patient P1, M 16, treatment resumed, M 0 450 m): P1: 530 | Six-minute walk test (normal 560-740) ([3]; patient P2, M 2 of treatment, 6 mg/Kg/day, M 0 before treatment 510 m): P2: 550 m | Six-minute walk test (normal 560-740) ([3]; patient P2, M 5 of treatment, M 0 510 m): P2: 595 m | Six-minute walk test (normal 560-740) ([3]; patient P2, M 9, after M 6-M 8 interruption of treatment, M 0 510 m): P2: 587 m | Six-minute walk test (normal 560-740) ([3]; patient P2, M 16, treatment resumed, M 0 510 m): P2: 590 | Questionnary PESDQL parent (0: very well - 92: very bad) ([4]; patient P1, M 2 of treatment, M 0 before treatment 30): P1: 22 | Questionnary PESDQL parent (0: very well - 92: very bad) ([4]; patient P1, M 5 of treatment, M 0 30): P1: 12 | Questionnary PESDQL parent (0: very well - 92: very bad) ([4]; patient P1, M 9, after M 6-M 8 interruption of treatment, M 0 30): P1: 31 | Questionnary PESDQL parent (0: very well - 92: very bad) ([4]; patient P1, M 16, treatment resumed, M 0 30): P1: 20 | Questionnary PESDQL parent (0: very well - 92: very bad) ([4]; patient P2, M 2 of treatment, M 0 before treatment 40): P2: 42 | Questionnary PESDQL parent (0: very well - 92: very bad) ([4]; patient P2, M 5 of treatment, M 0 40): P2: 33 | Questionnary PESDQL parent (0: very well - 92: very bad) ([4]; patient P2, M 9, after M 6-M 8 interruption of treatment, M 0 40): P2: 50 | Questionnary PESDQL parent (0: very well - 92: very bad) ([4]; patient P2, M 16, treatment resumed, M 0 40): P2: 35 | IL-6 concentration in serum (IL-6; under treatment): decreases | IL-6 concentration in serum (IL-6; when the treatment is resumed): decreases again | serum inflammatory profile (IL-6; patients 1 and 2, one month after the start of treatment, 6 mg/Kg/day): normalized | IL-6 secretion (serum/plasma) (IL-6; the two patients, after interruption of treatment): increased | clinical muscle phenotype ([5]; Patient 1, under treatment): corrected | pain ([5]; patient 2, under treatment): disappeared | walking ability ([5]; patient 2, under treatment): did not improve markedly | new episode of rhabdomyolysis ([5]; patients 1 and 2, during 6 months of treatment): did not have any new episode of rhabdomyolysis | muscle pain [5, 7]: did not have muscle pain | rhabdomyolysis [5, 7]: did not do rhabdomyolysis | rhabdomyolysis after stopping treatment ([5]; the two patients, treatment stopped after 6 months (lack of compliance), hospitalized in intensive care): immediately underwent extensive rhabdomyolysis | CK (Creatine kinase (CK); patient 1, rhabdomyolysis after treatment was stopped): 160 000 U/L | CK (Creatine kinase (CK); patient 2, rhabdomyolysis after treatment was stopped): 300 000 U/L | level of serum Creatine kinase (CK) (Creatine kinase (CK); patients 1 and 2, under treatment): decreased | accumulation of mtDNA in plasma ([6]; after treatment was stopped): reappeared; also recorded: increases | accumulation of mtDNA in plasma ([6]; under treatment versus before treatment): decreases | accumulation of mtDNA in plasma ([6]; when treatment was resumed): normalized; also recorded: decreases again
